System: HPA axis
Assay: 24-hour urinary cortisol excretion as a measure of HPA suppression
Assay type: in vivo, human
Conditions: 24 h post-dose urine, single dose, healthy subjects
Text: The below examples are used to exemplify the present invention and are in no way meant to narrow the scope of the invention. The examples compare the systemic pharmacokinetic and pharmacodynamic of a MDI made up of two drugs, namely, salmeterol and fluticasone propionate combined in a HFA propellant, namely 134a, with individual salmeterol and fluticasone propionate MDIs in a CFC propellant administered individually and with placebo (HFA 134a propellant alone). Healthy human subjects were given either salmeterol and fluticasone propionate in HFA 134a propellant, salmeterol in P11/P12, fluticasone propionate in P11/P12, or a placebo in HFA 134a propellant, in a randomized, single dose, crossover study. Potential side effects such as increased heart rate and QTc interval were measured. The levels of cortisol in the urine were also measured as a measure of HPA suppression. Twenty healthy human subjects were randomized into one of four treatment groups. […] Cortisol levels were determined from 500 μl of urine by automated immunochemiluminescence on the ASC-180 (Bayer Diagnostics) following preliminary extraction of the urine with dichloromethane. […] For untransformed parameters, the 90% (or 95%) confidence interval for the difference in least squares means was expressed as a ratio of the individual mean.

**Q.** With CCC(=O)O[C@]1(C(=O)SCF)[C@H](C)C[C@H]2[C@@H]3C[C@H](F)C4=CC(=O)C=C[C@]4(C)[C@@]3(F)[C@@H](O)C[C@@]21C [fluticasone propionate, S-(fluoromethyl)6α,9-difluro-11β,17-dihydroxy-16α-methyl-3-oxoandrosta-1,4-diene-17β-carbothioate,17-propionate] as the compound, how does the “post-treatment geometric mean urinary cortisol excreted” value read?
**A.** Its value is 18.5 µg.

Source: patent US20070122352A1, “Inhalation Drug Combinations” (GLAXO GROUP LIMITED, priority 2001, published 2007)
